For the assay, the system named is L1210 leukemia ip in BDF1 mice, survival T/C. Put plainly: NCI In Vivo Anticancer Drug Screen. Data for tumor model L1210 Leukemia (intraperitoneal) in B6D2F1 (BDF1) mice. Particulars: endpoint: mean survival time, higher = longer survival. An outline of the steps:
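In this screen, tumor-bearing mice given compound are compared to those given vehicle, and their survival values are reported as a treated-to-control quotient.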

Setting [1] is: dose: 100.0 mg/kg/injection, schedule: Q04DX002 (ip), vehicle: Klucel (hydroxypropylcellulose) (HPC).
[2] abbreviates: dose: 200.0 mg/kg/injection, schedule: Q04DX002 (ip), vehicle: Klucel (hydroxypropylcellulose) (HPC).
[3] abbreviates: dose: 400.0 mg/kg/injection, schedule: Q04DX002 (ip), vehicle: Klucel (hydroxypropylcellulose) (HPC).

T/C data for 14 compounds are collected here from PubChem BioAssay AID248 (DTP/NCI, 2004).

Values joined by “and” are separate entries in the source; they are usually repeats but may differ in a detail not shown here. Identical values can stand only once. Inconclusive results and toxic doses are left out.

Consider `O=C(CNC(=O)c1ccc(C(=O)NCC(=O)Nc2ccc(C3=NCCCN3)cc2)cc1)Nc1ccc(C2=NCCCN2)cc1`, for which the T/C runs as follows: (dose: 0.62 mg/kg/injection, schedule: Q01DX015 (ip), vehicle: methylcellulose (MC)) 101 % of control; (dose: 1.25 mg/kg/injection, schedule: Q01DX009 (ip), vehicle: saline) 97 % of control; (dose: 1.25 mg/kg/injection, schedule: Q01DX015 (ip), vehicle: methylcellulose (MC)) 98 % of control; (dose: 2.5 mg/kg/injection, schedule: Q01DX009 (ip), vehicle: saline) 110 % of control; (dose: 2.5 mg/kg/injection, schedule: Q01DX015 (ip), vehicle: methylcellulose (MC)) 98 % of control; (dose: 3.75 mg/kg/injection, schedule: Q01DX015 (ip), vehicle: methylcellulose (MC)) 116 % of control. Besides, the T/C by setting is: (dose: 10.0 mg/kg/injection, schedule: Q01DX009 (ip), vehicle: saline) 113 % of control; (dose: 20.0 mg/kg/injection, schedule: Q01DX015 (ip), vehicle: methylcellulose (MC)) 229 % of control; (dose: 25.0 mg/kg/injection, schedule: Q01DX001 (ip), vehicle: methylcellulose (MC)) 106 % of control; (dose: 30.0 mg/kg/injection, schedule: Q01DX015 (ip), vehicle: methylcellulose (MC)) 186 % of control; (dose: 40.0 mg/kg/injection, schedule: Q01DX009 (ip), vehicle: saline) 153 % of control; (dose: 40.0 mg/kg/injection, schedule: Q01DX015 (ip), vehicle: methylcellulose (MC)) 191 % of control. The T/C runs as follows: (dose: 50.0 mg/kg/injection, schedule: Q01DX001 (ip), vehicle: methylcellulose (MC)) 113 % of control; (dose: 60.0 mg/kg/injection, schedule: Q01DX009 (ip), vehicle: Klucel (hydroxypropylcellulose) (HPC)) 256 % of control; (dose: 80.0 mg/kg/injection, schedule: Q01DX009 (ip), vehicle: Klucel (hydroxypropylcellulose) (HPC)) 300 % of control; (dose: 120.0 mg/kg/injection, schedule: Q01DX009 (ip), vehicle: Klucel (hydroxypropylcellulose) (HPC)) 115 % of control; (dose: 160.0 mg/kg/injection, schedule: Q01DX009 (ip), vehicle: Klucel (hydroxypropylcellulose) (HPC)) 102 % of control.
`CCCCC#CC(=O)OC(C)CC` (configuration not stated): the T/C runs as follows: (dose: 100.0 mg/kg/injection, schedule: Q04DX002 (ip), vehicle: saline) 104 % of control; (dose: 200.0 mg/kg/injection, schedule: Q04DX002 (ip), vehicle: saline) 92 % of control; (dose: 400.0 mg/kg/injection, schedule: Q04DX002 (ip), vehicle: saline) 101 % of control.
Turning to `CCCCCC(=O)CC(=O)c1cccs1`, the T/C was 100 % of control (dose: 200.0 mg/kg/injection, schedule: Q01DX Z (ip), vehicle: other) and 103 % of control (dose: 400.0 mg/kg/injection, schedule: Q01DX Z (ip), vehicle: other).
Turning to `Cc1cc(N(CCCl)CCCl)ccc1N=Nc1ccccc1C(=O)[O-].Cc1cc(N(CCCl)CCCl)ccc1N=Nc1ccccc1C(=O)[O-].[Cu+2]`, the T/C runs as follows: (dose: 2.0 mg/kg/injection, schedule: Q01DX015 (ip), vehicle: carboxymethylcellulose (CMC)) 111 % of control; (dose: 4.0 mg/kg/injection, schedule: Q01DX015 (ip), vehicle: carboxymethylcellulose (CMC)) 117 % of control; (dose: 8.0 mg/kg/injection, schedule: Q01DX015 (ip), vehicle: carboxymethylcellulose (CMC)) 120 % of control; (dose: 15.0 mg/kg/injection, schedule: Q01DX015 (ip), vehicle: carboxymethylcellulose (CMC)) 123 % of control.
As to `CN(C)C(=O)C(=O)c1c[nH]c2ccccc12`, the T/C under setting [1] was 118 % of control, the T/C under setting [2] is 109 % of control and the T/C under setting [3] was 109 % of control.
As for `CC(C)CC(C=NCC(CCN1CCOCC1)(CC(C)C)c1cccc2ccccc12)(CCN1CCOCC1)c1cccc2ccccc12` (configuration not stated), the T/C runs as follows: (dose: 100.0 mg/kg/injection, schedule: Q01DX009 (ip), vehicle: Klucel (hydroxypropylcellulose) (HPC)) 94 % of control; (dose: 200.0 mg/kg/injection, schedule: Q01DX009 (ip), vehicle: Klucel (hydroxypropylcellulose) (HPC)) 90 % of control; (dose: 400.0 mg/kg/injection, schedule: Q01DX009 (ip), vehicle: Klucel (hydroxypropylcellulose) (HPC)) 92 % of control.
As for `CCOP(=O)(Nc1ccc2oc(=O)c3ccccc3c2c1)OCC`, the T/C is 100 % of control (dose: 50.0 mg/kg/injection, schedule: Q01DX001 (ip), vehicle: carboxymethylcellulose (CMC)); 100 % of control (dose: 100.0 mg/kg/injection, schedule: Q01DX001 (ip), vehicle: carboxymethylcellulose (CMC)); 110 % of control (dose: 200.0 mg/kg/injection, schedule: Q01DX001 (ip), vehicle: carboxymethylcellulose (CMC)); 97 % of control (dose: 400.0 mg/kg/injection, schedule: Q01DX001 (ip), vehicle: carboxymethylcellulose (CMC)).
Consider `S=P1(c2ccccc2)Nc2ccc(Cl)cc2N1` (configuration not stated), for which the T/C is 104 % of control (dose: 75.0 mg/kg/injection, schedule: Q04DX002 (ip), vehicle: gum acacia); 104 % of control (dose: 150.0 mg/kg/injection, schedule: Q04DX002 (ip), vehicle: gum acacia); 101 % of control (dose: 300.0 mg/kg/injection, schedule: Q04DX002 (ip), vehicle: gum acacia).
Consider `O=C(O)CCC1NC(=O)NC1=O` (configuration not stated), for which the T/C (dose: 100.0 mg/kg/injection, schedule: Q01DX001 (ip), vehicle: saline) was 96 % of control; the T/C (dose: 200.0 mg/kg/injection, schedule: Q01DX001 (ip), vehicle: saline) was 96 % of control; the T/C (dose: 400.0 mg/kg/injection, schedule: Q01DX001 (ip), vehicle: saline) was 91 % of control.
As for `CC(C)=CCC/C(C)=C\COc1ccc(C(C)(C)C)cc1`, the T/C is 96 % of control under setting [1], 100 % of control under setting [2] and 89 % of control under setting [3].
For `N/C(=N/N=C/c1ccncc1)N/N=C\c1ccncc1`, the T/C was 89 % of control (dose: 30.0 mg/kg/injection, schedule: Q01DX Z (ip), vehicle: carboxymethylcellulose (CMC)); 106 % of control (dose: 30.0 mg/kg/injection, schedule: Q01DX Z (oral), vehicle: carboxymethylcellulose (CMC)); 87 % of control (dose: 60.0 mg/kg/injection, schedule: Q01DX Z (ip), vehicle: carboxymethylcellulose (CMC)); 95 % of control (dose: 60.0 mg/kg/injection, schedule: Q01DX Z (oral), vehicle: carboxymethylcellulose (CMC)); 92 % of control (dose: 120.0 mg/kg/injection, schedule: Q01DX Z (ip), vehicle: carboxymethylcellulose (CMC)); 97 % of control and 123 % of control (dose: 120.0 mg/kg/injection, schedule: Q01DX Z (oral), vehicle: carboxymethylcellulose (CMC)). For the same compound, the T/C is, setting by setting: (dose: 240.0 mg/kg/injection, schedule: Q01DX Z (oral), vehicle: carboxymethylcellulose (CMC)) 101 % of control and 104 % of control; (dose: 480.0 mg/kg/injection, schedule: Q01DX Z (oral), vehicle: carboxymethylcellulose (CMC)) 101 % of control.
For the compound `O=C(NCCCNC(=O)Nc1ccc(C2=NCCN2)cc1)Nc1ccc(C2=NCCN2)cc1`, the T/C by setting is: (dose: 0.5 mg/kg/injection, schedule: Q01DX Z (ip), vehicle: carboxymethylcellulose (CMC)) 105 % of control; (dose: 1.0 mg/kg/injection, schedule: Q01DX Z (ip), vehicle: carboxymethylcellulose (CMC)) 105 % of control; (dose: 8.0 mg/kg/injection, schedule: Q01DX Z (ip), vehicle: water) 122 % of control; (dose: 12.0 mg/kg/injection, schedule: Q01DX Z (ip), vehicle: carboxymethylcellulose (CMC)) 225 % of control; (dose: 16.0 mg/kg/injection, schedule: Q01DX Z (ip), vehicle: carboxymethylcellulose (CMC)) 223 % of control; (dose: 16.0 mg/kg/injection, schedule: Q01DX Z (ip), vehicle: water) 210 % of control. Moreover, the T/C by setting is: (dose: 24.0 mg/kg/injection, schedule: Q01DX Z (ip), vehicle: carboxymethylcellulose (CMC)) 223 % of control; (dose: 31.0 mg/kg/injection, schedule: Q01DX Z (ip), vehicle: carboxymethylcellulose (CMC)) 177 % of control.
Consider `COC(=O)C(C)C1CCC2C3=CC=C4CC(OC(C)=O)CCC4(C)C3CCC21C` (configuration not stated), for which the T/C (dose: 100.0 mg/kg/injection, schedule: Q01DX001 (ip), vehicle: saline with Tween-80) is 93 % of control; the T/C (dose: 200.0 mg/kg/injection, schedule: Q01DX001 (ip), vehicle: saline with Tween-80) is 98 % of control; the T/C (dose: 400.0 mg/kg/injection, schedule: Q01DX001 (ip), vehicle: saline with Tween-80) was 104 % of control.
Regarding `ClCCOCCOc1ccc(C2CCCCC2)cc1`, the T/C was 106 % of control (dose: 100.0 mg/kg/injection, schedule: Q01DX009 (ip), vehicle: saline); 97 % of control (dose: 200.0 mg/kg/injection, schedule: Q01DX009 (ip), vehicle: saline); 90 % of control (dose: 400.0 mg/kg/injection, schedule: Q01DX009 (ip), vehicle: saline).
